Results as given in publication PMC10487843, “Evaluation of Anticancer and Anti-Inflammatory Activities of Some Synthetic Rearranged Abietanes” (International Journal of Molecular Sciences, 2023).
In brackets after ≈: the same amount, converted by molar mass.

Test system: HT29, HepG2 and B16–F10 cell lines
Assay: MTT cell viability assay, span over all three tumor cell lines
Type: cell-based
Conditions: 72 h
Text: In this study, we employed the MTT (3-(4,5-dimethyl thiazol-2-yl)-2,5-diphenyltetrazolium bromide) colorimetric assay to evaluate the cytotoxic activity of selected abietanes (compounds 5, 7, 13, 17, and 19) against three tumor cell lines: human colon adenocarcinoma (HT29), human hepatocarcinoma (HepG2), and murine melanoma (B16–F10). The MTT assay relied on the conversion of MTT to formazan by viable cells, with the formazan concentration proportional to the number of viable cells. The concentrations required for 50 and 80% growth inhibition (IC50 and IC80) were determined for each compound.
The human colorectal adenocarcinoma cell line HT29 (ECACC no. 9172201; ATCC no. HTB-38), the human hepatocarcinoma cell line HepG2 (ECACC no. 85011430), the mouse melanoma cells B16–F10 (ATCC no. CRL-6475), and the murine monocyte/macrophage like RAW 264.7 cell line (ATCC no, TIB-71) were obtained from the cell bank of the University of Granada, Spain. […]
The effects of the compounds on the cell viability were established using the MTT method (Sigma, St. Louis, MO, USA). The cytotoxicity of the compounds was assessed by measuring the absorbance of MTT dye staining of metabolically competent cells. […] The cell viability relative to the untreated control cells was determined by measuring the absorbance at 570 nm using an ELISA plate reader (Tecan Sunrise MR20–301, TECAN, Grödig, Austria).

- IC50 (read-out: IC50 values, range in all three cell lines): 2.67 to 5.58 µg/mL (≈ 8.89 to 18.6 µM)
SMILES: CC(C)C1=CC2=C(C(=O)C1=O)[C@@]1(C)CCCC(C)(C)[C@@H]1CC2 [Compound 13]
- IC80 (read-out: IC80 values, range in all three cell lines): 5.19 to 7.67 µg/mL (≈ 17.3 to 25.5 µM)
